Measured values reported in patent US8017727B2, “Conjugates of membrane translocating agents and pharmaceutically active agents” (Merrion Research III Limited, priority 1999, dated 2011).

Legend:
Caco-2 monolayers = assay: Transport of dipeptide 14C-gly-sar across Caco-2 monolayers; format: cell-based, human; set-up: key to % inhibition 14C-gly-sar transport: NS: no significant difference between experimental (+MTLP) and control cells (−MTLP) in the transport of radiolabeled drug; details: flux measured over 2 h
Procedure: The effect of the MTLPs ZElan094, ZElan178 and ZElan187 (SEQ ID NOS: 2, 7 and 16) and of the targeting peptide ZElan022 (U.S. patent application Ser. Nos. 09/079,819, 09/079,723 AND 09/079,678, AND PCT APPLICATION PCT/US98/10088, PUBLISHED AS WO 98/51325) on the transport of the dipeptide ^14C-gly-sar and of the reporter molecule ^3H-fMLP across Caco-2 monolayers was determined. The Caco-2 monolayers were grown on Transwell-Snapwells. Cell viability was determined by measuring TEER of the Caco-2 monolayers during each experiment. No significant drop in TEER was measured. Cell permeability was determined by measuring mannitol flux across the Caco-2 monolayers during each experiment. No increase in mannitol flux was measured in the presence of the MTLP ZElan094.
The flux of the dipeptide ^14C-gly-sar and of the reporter molecule ^3H-fMLP across the Caco-2 monolayers in the absence and in the presence of the MTLPs ZElan094, ZElan178 and ZElan187 (SEQ ID NOS: 2, 7 and 16) and of the targeting peptide ZElan022 (U.S. patent application Ser. Nos. 09/079,819, 09/079,723 AND 09/079,678), AND PCT APPLICATION PCT/US98/10088, PUBLISHED AS WO 98/51325 was measured over 2 h, and reduction in the permeability coefficient was determined in the presence of cold substrates.

kappa receptor = biological target: T1, kappa receptor (Rattus norvegicus, UniProt P34975); assay: Competition for binding of a radiolabelled kappa peptide to rat brain homogenates; details: IC50, Day 82, first of triplicates
T1 construct: from tissue; host or cells: rat brain homogenate
Procedure: The integrity of the opioid peptide was evaluated post conjugation to assess suitability for inclusion in further studies. Opioid activity was assessed in vitro using a competition assay (competition for binding of a radiolabelled kappa peptide to rat brain homogenates).

[1] = Opioid peptide stability in SIF (pancreatin, pH 7.5, HPLC/LCMS); format: in vitro ADME
Procedure: Pancreatin (Fisher Scientific) was dissolved at 1 mg/ml in 1× phosphate buffer solution. The pH of the solution was adjusted to 7.5 with 0.01 M NaOH and it was heated in a waterbath to 37° C. Two dry peptide samples were weighed out. One sample was dissolved in phosphate buffer solution at 1.0 mg/ml as a control. The second sample was dissolved in SIF at 1.0 mg/ml for stability analysis. HPLC Analysis Conditions RP-HPLC analysis with C-18 short column (Betasil column, 5 μm (50×3 mm) PN: 055-701-3) with the following gradient: […]
Diode array detector on the system, 214 nm used for analysis
Solution in SIF injected at 0, 1, 3, and 24 hours
Analyzed control and 24 hour sample by LCMS.

[2] = 3H tissue distribution of kappa peptide conjugates, conscious rat model; format: in vivo, Wistar rats; details: ID, 100 μCi, potency corrected
Procedure: The tissue was weighed and a representative sample, (ca 0.1 g), was removed to a scintillation vial. The tissue was solubilzed with 1 ml of BTS-450 (an organic tissue solubliser). Ten ml of scintillation fluid was added and the radioactivity was measured. The radioactivity was expressed as dpm/initial weight of tissue.

Caco-2 cell monolayers = assay: Permeability of tritiated kappa peptide conjugates through differentiated Caco-2 cell monolayers; format: in vitro ADME, human; details: n=5
Procedure: Highest transport values were obtained in the first 30 min followed by a 2-4 fold decrease at 60 min. The significance of these findings is unclear. The data may be indicative of dual binding/uptake events occurring through i) a kappa receptor specific mechanism and ii) direct membrane interaction through lipid interaction of the membrane permeable peptide.

[3] = Systemic 3H bioavailability of kappa peptide conjugates, conscious rat model (plasma); format: in vivo, Wistar rats; details: intraduodenal (ID), 100 μCi
Procedure: The possible enhancing effects of ELAN094 and ELAN207 MTLPs (SEQ ID NOs 2 and 60) on intestinal absorption of the kappa peptide were examined in a conscious rat model.
The study was non-randomised, parallel group design. Wistar rats within the 250-350 g weight range were used. All animals were fasted for a period of 16 h prior to study initiation. Water was available at all times.
Intravenous injection of 10 μCi of ^3H-kappa peptide-Kaffiralin-1 (plain kappa peptide) (tail vein injection).
Intraduodenal instillation of 100 μCi of ^3H-kappa peptide-Elan094 (Analysed). The Elan094 ligand contains a membrane translocating sequence.
Intraduodenal instillation of 100 μCi of ^3H-kappa peptide-Elan207 (Analysed). The Elan207 ligand contains a membrane translocating sequence.
Intraduodenal instillation of 100 μCi of ^3H-kappa peptide-Kaffiralin-1.
The plasma (100-250 μl) was made up to 1 ml with BTS-450 (an organic tissue solubiliser) and incubated for 1 hour. Ten ml of Scintillation fluid was added and the radioactivity was measured.
The study was a non-randomised, parallel group biostudy designed to evaluate the systemic bioavailability of tritium labelled kappa peptide conjugates after intra-duodenal instillation in the conscious rat model. Each rat only received one treatment and the plasma samples were analysed for tritium content. The calculation of AUClast, Amax, tmax, Volume of Distribution (V d) and Clearance was based on base line corrected data. The absolute bioavailability was calculated using potency corrected data.

[4] = Stability of MTLPs in simulated intestinal fluid pH 6.8 with pancreatin (HPLC recovery)
Procedure: MTLPs ZElan094 and ZElan207 (SEQ. ID NO: 2 and 60) were dissolved in water and mixed with simulated intestinal fluid pH 6.8 containing porcine derived pancreatin (SIF+Pancreatin) at 37° C. The mixtures were incubated for up to 60 minutes at 37° C., with aliquots taken at designated time points. The reaction was quenched with quenching solution after the relevant time points in order to halt the reaction between the SIF and ligand.
Approximately 1 mg of ligand was dissolved in 1 ml of water. This standard stock solution of ligand was used to prepare the solutions containing Ligand+SIF+Pancreatin. 50 μL of ligand solution was mixed with volumes of SIF+Pancreatin in separate eppendorfs, as follows:
At the appropriate time point the reaction between the ligand and SIF was stopped by pipetting 100 μL of the mixture into 500 μL of quenching solution (Acetonitrile:Water 30:70). 20 μL of the mixture was injected onto the HPLC system.
Control samples of ligand in water and in quenching solution were prepared to check for recovery of ligand in the absence of SIF+Pancreatin.

## H-K(ε-dansyl)KKAAVLLPVLLA-NH2 ({K(ε-dansyl)}-KKAAVLLPVLLA-NH2) [ZElan187]
Caco-2 monolayers
  % inhibition 14C-gly-sar transport: NS
  inhibition of 14C-gly-sar transport: did not inhibit transport

## CC[C@@H](C)[C@@H](NC(=O)[C@@H](Cc1ccccc1)NC(=O)[C@H](N)Cc1ccccc1)C(=O)N[C@H](CCCNC(=N)N)C(N)=O [H-ffir-NH2]
Kappa receptor
  IC50: 4 nM
[1]; over the 24 hour period
  stability in SIF: very stable
[1]; simulated intestinal fluid (SIF) with pancreatin, pH 7.5, SIF, 37° C., 1 hr, read-out: % Compound
  remaining at 1 h, 1 mg/ml: 105%
[1]; simulated intestinal fluid (SIF) with pancreatin, pH 7.5, SIF, 37° C., 24 hr, read-out: % Compound
  remaining at 24 h, 1 mg/ml: 101%

## H-K(ε-dansyl)KKCAAVLLPVLLAC-NH2 ({K(ε-dansyl)}-KKCAAVLLPVLLAC-NH2; not fully specified; printed as H-K(ε-dansyl)KKCAAVLLPVLLAC-NH2; also: cyclic internal, bridge kind and places not given here) [ZElan178]
Caco-2 monolayers
  % inhibition 14C-gly-sar transport: NS
  inhibition of 14C-gly-sar transport: did not inhibit transport

## CC[C@@H](C)[C@@H](NC(=O)[C@@H](Cc1ccccc1)NC(=O)[C@@H](Cc1ccccc1)NC(=O)[C@H](CCCCN)NC(=O)[C@@H]1CCCN1C(=O)[C@H](C)NC(=O)[C@H](C)NC(=O)[C@H](CC(C)C)NC(=O)[C@H](CC(C)C)NC(=O)[C@@H](NC(=O)[C@@H]1CCCN1C(=O)[C@H](CC(C)C)NC(=O)[C@H](CC(C)C)NC(=O)[C@@H](NC(=O)[C@H](C)NC(=O)[C@H](C)NC(=O)[C@H](C)NC(=O)[C@H](CCCCN)NC(=O)[C@@H](N)CCCCN)C(C)C)C(C)C)C(=O)N[C@H](CCCNC(=N)N)C(N)=O [3H-Kappa peptide-Elan094]
[2]
  Catheter, % of administered dose: 0.20 ± 0.10%
  GI Tissue, % of administered dose: 11.61 ± 11.27%
  GI Washing, % of administered dose: 9.70 ± 5.24%
  GI contents, % of administered dose: 23.57 ± 21.57%
  Liver, % of administered dose: 0.37 ± 0.06%
  Total GI (% recovery from GI tissue, GI contents & GI wash): 44.89 ± 19.94%
[2]; t=6 h
  Kidney, % of administered dose: 0.12 ± 0.07%
  Plasma, % of administered dose: 0.42±0.08%
  Total Recovery, % of administered dose: 46.00 ± 19.91%
Caco-2 cell monolayers
  permeability compared to the kappa peptide control: No significant increase
[3]
  fold increase in absolute 3H bioavailability versus kappa peptide without ligand: ~6 fold
[3]; Elan207 = original group
  3H AUClast: 260642.53±35010.58 dpm/ml·h
  3H Amax (maximum radioactivity): 158512.67±18907.79 dpm/ml
[3]; listed as Elan094 MTLP
  fold increase in absolute 3H bioavailability versus kappa peptide without ligand: approximately 5.8 fold
[3]; rat, plasma, potency corrected, Elan207 = original group, read-out: Absolute 3H bioavailability
  bioavailability: 46.5 ± 6.24%

## CC(C)C[C@@H](NC(=O)[C@@H](CC(C)C)NC(=O)[C@H](NC(=O)[C@H]1CCCN1C(=O)[C@@H](CC(C)C)NC(=O)[C@@H](CC(C)C)NC(=O)[C@H](NC(=O)[C@@H](C)NC(=O)[C@@H](C)NC(=O)[C@@H](C)NC(=O)[C@@H](CCCCN)NC(=O)[C@@H](CCCCN)NC(=O)[C@H](N)CCCCNS(=O)(=O)c1cccc2c(N(C)C)cccc12)C(C)C)C(C)C)C(=O)N[C@H](C)C(=O)N[C@H](C)C(=O)N1CCC[C@@H]1C(N)=O [ZElan207]
[4]; % Recovery, control without SIF: Pep + H2O (100 ul) + H2O, 60 min
  recovery: 101%
[4]; % Recovery, control without SIF: Pep + H2O (100 ul) + quenching solution, 60 min
  recovery: 101%
[4]; pH 6.8, % Recovery, Peptide + 100 uL SIF pH 6.8, 37 C, 5 min
  recovery: 96.6%
[4]; pH 6.8, % Recovery, Peptide + 100 uL SIF pH 6.8, 37 C, 10 min
  recovery: 97.4%
[4]; pH 6.8, % Recovery, Peptide + 100 uL SIF pH 6.8, 37 C, 30 min
  recovery: 87.8%
[4]; pH 6.8, % Recovery, Peptide + 100 uL SIF pH 6.8, 37 C, 60 min
  recovery: 97.7%
[4]; pH 6.8, % Recovery, Peptide + 200 uL SIF pH 6.8, 37 C, 5 min
  recovery: 99%
[4]; pH 6.8, % Recovery, Peptide + 200 uL SIF pH 6.8, 37 C, 10 min
  recovery: 96.3%
[4]; pH 6.8, % Recovery, Peptide + 200 uL SIF pH 6.8, 37 C, 30 min
  recovery: 92.8%
[4]; pH 6.8, % Recovery, Peptide + 200 uL SIF pH 6.8, 37 C, 60 min
  recovery: 96.5%
